Experimental data as given in article doi:10.1101/2025.02.26.640266v1, “Predicting PROTAC-targeted Degradation and Designing Androgen Receptor Degraders with AiPROTAC” (biorxiv, 2025).

Target: CRBN (human cereblon) (Homo sapiens, UniProt Q96SW2)
Experiment: HTRF human cereblon binding kit (competition)

- IC50: 150 nM
SMILES: CC1(C)[C@H](NC(=O)c2ccc(N3CCN(CCCSc4ccc5c(c4)CN(C4CCC(=O)NC4=O)C5=O)CC3)nc2)C(C)(C)[C@H]1Oc1ccc(C#N)c(Cl)c1 (stereo partly shown) [GT19, PROTAC GT19]
